Literature values, collected in patent US20110237925A1, “MICRONEEDLE ARRAY CHIP, DEVICE AND PATCH FOR TRANSDERMAL DRUG DELIVERY UTILIZING THE SAME, AND PREPARATION METHOD THEROF” (priority 2010, published 2011).

Conditions: solid silicon microneedle array prepared through MEMS technology

O=C(O)CN(CC(=O)O)Cc1cc2c(cc1O)Oc1cc(O)c(CN(CC(=O)O)CC(=O)O)cc1C21OC(=O)c2ccccc21 [calcein]
increase of the transdermal permeability: four orders of magnitude
